Laboratory results: US7820624B2, “Peptide ligands” (ICH Productions Limited, priority 2003, dated 2010)
Entries after “also recorded” stand apart in the source; their conditions may differ.

Columns and labels:
[1] = Titration of phage clone binding to blocked plastic (control)
Experimental: (§1) The dendritic cells were spun down at 2000 rpm, for 5 min at 4° C., and resuspended in the phage solution, allowing the phage to bind for 1 hour on ice with occasional mixing. The cells were then washed in PBS-Tween 20 (0.05%) three times before eluting phage with 166 μl TBS pH5.5. for 10 min on ice. The eluate was neutralised with […] Tris-HCl pH 8, the cells were spun down, and the supernatant removed to be stored as eluate. The cell pellet was resuspended in 200 μl of cell lysis buffer (30 mM Tris-HCl, 1 mM EDTA pH 8.0) for 1 hour on ice, with shaking. The cell debris was removed by spinning at 5000 rpm for 5 min and the supernatant recovered. The phage in the eluate and the cell lysate were titred by measuring plaque forming units (pfu) in E. coli ER2738 as described in the NEB C7C technical bulletin.
(§2) The titration of phage clone binding was carried out using human and mouse dendritic cells, with binding to plastic as a control. The human cells were obtained from donors as stated below.

[2] = tested on: human monocyte-derived immature dendritic cells; experiment: Whole cell flow cytometry (FACS) of phage clone binding; details: day 4 cells, several donors; versus phage clone with no insert
Experimental: 5×10^4 Dendritic cells and 2×10^11 of an individual purified phage clone were each blocked at 4° C. for 30 mins in 1 ml MBSA (2% Marvel, 5% BSA in PBS), with mixing on a turntable. The dendritic cells were spun down at 2000 rpm, a gentle centrifugation to pellet cells without lysing them, for 5 min at 4° C., and the pellet resuspended in the blocked phage solution. The mixture was held on ice for 30 min to allow the phage to bind, before spinning down the cells, removing the supernatant and washing the cells with 1 ml 1% BSA, 0.05% Tween20-PBS. The cells were spun again, the supernatant removed, and the cells fixed in 1 ml 1% paraformaldehyde for 30 min on ice. […] The cells were incubated with the antibody on ice for 30 min before spinning down, washing twice in 0.05% Tween20, 1% BSA PBS, resuspending in […] and measuring the percentage cells positive for FITC by FACS analysis.
Alternatively, 5×10^4 dendritic cells were mixed with 2×10^11 of individual phage clones as described for panning of the phage library. The mixture of phage and DC suspensions was kept on ice for 30 min before cells were centrifuged to remove the supernatant and washed with 1 ml 1% BSA, 0.05% Tween 20-PBS. The cells were again pelleted by centrifugation, then fixed for flow cytometry analysis by resuspending in 1 ml of 1% paraformaldehyde for 30 min on ice. […] The cells were incubated with the antibody on ice for 30 min then pelleted by centrifugation, washed twice in 0.05% Tween 20, 1% BSA PBS and resuspended in 200 μl PBS. The percentage of FITC-positive cells was determined by flow cytometry using a Epics XL flow cytometer (Beckman Coulter, High Wycombe, UK.).

[3] = tested on: human peripheral blood monocytes; experiment: LID transfection of monocytes, EGFP by FACS and cell death; assay type: cell-based; details: FIG. 7b; peptide F value with Lipofectin
Experimental: (§3) Lipopolyplex (LID) transfection complexes comprising lipid (L), peptide (in the form of a peptide derivative as described above) (I) and DNA (D) were prepared. The lipid component was Lipofectin or Lipofectamine 2000 (Invitrogen Ltd, Paisley, UK), the peptide component was a synthesized peptide A to F, 6 or 6J derivative, as described in Table 7 above, and the DNA was the plasmid pEGFP-N1 (Clontech, BD Biosciences, Palo Alto, Calif.)
(§4) component (Lipofectin or Lipofectamine 2000) was maintained at a constant proportion, by weight, relative to DNA of 0.75:1. Prior to making transfection complexes, in method A the lipid component was diluted to a concentration of 15 μg per ml, the peptide was prepared at 0.1 mg/ml and the DNA (plasmid pEGFP-N1, BD Biosciences, Cowley, UK, prepared using EndoFree plasmid kit, Qiagen Ltd, Crawley, UK) was at 10 μg per ml. All dilutions were performed with OptiMEM reduced serum tissue culture medium (Life Technologies Ltd, Paisley, UK). In method B prior to making transfection complexes the lipid component was diluted to a concentration of 30 μg per ml, the peptide was prepared at 0.1 mg/ml and the DNA (plasmid pEGFP-N1, BD Biosciences, Cowley, UK, prepared using EndoFree plasmid kit, Qiagen Ltd, Crawley, UK) was at […]. All dilutions were performed in serum-free RPMI.
(§5) Transfection complexes were made by mixing the components in the order 1) lipid (50 μl) then 2) peptide (70 μl) and finally 3) DNA (50 μl), then diluting with OptiMEM or serum free RPMI, as appropriate, to a concentration relative to the DNA component of 2 μg DNA per […] (OptiMEM) or 500 μl (RPMI).
(§6) For transfection of monocytes, peripheral blood monocytes were prepared using Lymphoprep centrifugation and CD14 bead selection as described in the method for preparation of monocyte derived dendritic cells in Example 1(v) above. These cells were then transfected as described as described for dendritic cells except that transfection of the monocytes (and also of day 3 or day 4 immature dendritic cells) was carried out in solution.

[4] = tested on: human monocyte-derived immature dendritic cells; experiment: Titration of phage clone binding to human dendritic cells; details: for Phage harvested by cell lysis (pfu), human donor S / Phage harvested by cell lysis (pfu), human donor one / Phage harvested by cell lysis (pfu), human donor two: 2×10^11 phage on 5×10^4 cells, 1 hour on ice
Experimental: Phage were recovered and titred from each round of selection as follows. 2×10^11 Blocked phage were added to 5×10^4 blocked monocyte-derived immature dendritic cells for 1 hour on ice before washing cells three times with 0.05% Tween20-PBS, eluting phage with TBS pH5.5, and lysing cells to harvest the phage remaining bound. The numbers of phage harvested by cell lysis were calculated as plaque forming units (pfu). […] Sequencing of the bound phage shown in FIG. 1 identified the peptides as APSNSTA [SEQ. ID. NO.:15], QLLTGAS [SEQ. ID. NO.:30], TARDYRL [SEQ. ID. NO.:31], FQSQYQK [SEQ. ID. NO.:26], PLMPSLS [SEQ. ID. NO.:24], FPRAPHH [SEQ. ID. NO.:32], MASISMK [SEQ. ID. NO.:27], DWWHTSA [SEQ. ID. NO.:28], SHVKLNS [SEQ. ID. NO.:29], and SPALKTV [SEQ. ID. NO.:16].
as §1, §2

[5] = tested on: human monocyte-derived immature dendritic cells; experiment: LID (lipid-peptide-DNA) transfection of immature dendritic cells, EGFP by FACS and 7AAD cell death; assay type: cell-based; set-up: Transfection efficiency, % EGFP positive cells: concentration or dose not given beside the values; details: for Percentage of dendritic cells transfected / Transfection efficiency, % positive cells: day 4 cells; for Percentage of dendritic cells transfected: LID with lipofectin (FIG. 4b)
Experimental: as §3
In the transfection complex, peptide component to DNA charge ratios (+/−) were used at 1.5:1, 3:1 and 7:1. The lipid
as §4, §5
Immature day 6 dendritic cells, obtained as described in Example 1(v) above, were plated into a 48 well plate at 5×10^4 cells per well in complete media and allowed to settle for 3 hours at 37° C. 300 μl or 500 μl (as appropriate) of the transfection complex obtained as described above was added to each well. The transfection complex was applied to cells within 5 minutes of preparation. Transfection incubations were performed at 37° C. for 4 hours, after which the medium was replaced with complete medium with cytokines for 24 hours. Cells were harvested by scraping, spun down and resuspended in 300 μl PBS for FACS analysis to determine the percentage of cells positive for the reporter gene EGFP (Enhanced Green Fluorescent Protein). Each transfection was performed in triplicate wells.
as §6

[6] = tested on: mouse dendritic cells; experiment: Titration of phage clone binding to mouse dendritic cells; details: 2×10^11 phage
Experimental: as §1, §2

[7] = lipofectin, lipid:DNA 0.75:1, peptide:DNA 7:1 (FIG. 5a)

Row | Substance | Phage titre (pfu), plastic [1] [pfu ×10^3] | Percentage of cells positive for bound phage (FITC) by FACS [2] | Cell death [3] [%] | Phage harvested by cell lysis (pfu), human donor S [4] [pfu ×10^3] | Phage harvested by cell lysis (pfu), human donor one [4] [pfu ×10^3] | Phage harvested by cell lysis (pfu), human donor two [4] [pfu ×10^3] | Percentage of dendritic cells transfected [5] | Phage titre (pfu), mouse DCs [6] [pfu ×10^3] | Extent of phage clone binding in titrations ([4]; all titrations, including mouse dendritic cells, versus phage with no insert) | Transfection efficiency, % positive cells [5, 7] | Transfection efficiency, % EGFP positive cells ([5]; day 3 dendritic cells (FIG. 6a)) [%] | Transfection efficiency, % positive cells ([5]; Lipofectamine 2000) [%]
1 | DWWHTSA (Synthetic peptide binding to dendritic cells) | 1180 | binding to a higher percentage of cells than a phage clone bearing no insert; also recorded: bind to dendritic cells in highest amounts; also recorded: binding to dendritic cells in highest amounts | 25 | 8020 | 2980 | 1380 | less than 1% | 3240 | – | – | – | –
2 | FQSQYQK (Synthetic peptide binding to dendritic cells) | 1680 | binding to a higher percentage of cells than a phage clone bearing no insert | – | 3060 | 1000 | 360 | – | 3260 | – | – | – | –
3 | MASISMK (Synthetic peptide binding to dendritic cells) | 2380 | a higher percentage of cells positive for bound phage than the controls with no insert | – | 9440 | 15220 | 7780 | approximately half that value | 6380 | bound in highest numbers in all titrations | about 7% | – | –
4 | PMLPSLS (Synthetic peptide binding to dendritic cells) | 80 | a higher percentage of cells positive for bound phage than the controls with no insert | – | 560 | 40 | 40 | – | 1520 | – | – | – | –
5 | QLLTGAS (Synthetic peptide binding to dendritic cells) | 220 | a higher percentage of cells positive for bound phage than the controls with no insert; also recorded: binds to marginally more cells than the others | – | 220 | 380 | 960 | – | 20 | – | – | – | –
6 | RRETAWA [peptide 6, reference compound] | – | – | – | – | – | – | – | – | – | 2% | 14 | 3
7 | SPALKTV (Synthetic peptide binding to dendritic cells) | 220 | all clones except for one | – | 6960 | 120 | – | – | 600 | – | – | – | –
8 | SQKNPQM (Synthetic peptide binding to dendritic cells) | – | binding to a higher percentage of cells than a phage clone bearing no insert | – | – | – | – | – | – | – | – | – | –
9 | STPPNTT (Synthetic peptide binding to dendritic cells) | – | a higher percentage of cells positive for bound phage than the controls with no insert | – | – | – | – | – | – | – | – | – | –
10 | TARDYRL (Synthetic peptide binding to dendritic cells) | – | a higher percentage of cells positive for bound phage than the controls with no insert | – | 940 | – | 180 | – | – | – | – | – | –
